This is an account of results in PubChem BioAssay (NCI).

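1) Cells in 96-well plates. 2) Compound, 48 h, 5 concentrations. 3) Linear interpolation between surrounding doses. 4) Unreached endpoint = highest concentration. Abbreviation: GI50, concentration required for 50% inhibition of growth. TGI: total growth inhibition.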

Among the test systems are HCT-15 colon; OVCAR-5 ovarian; PC-3 prostate; U251 CNS; SW-620 colon; SF-268 CNS; HT29 colon; COLO 205 colon; TK-10 renal; SR leukemia.
What all share (test): NCI tumour cell line growth inhibition, 48 h

For `CC1(C)CC[C@]2(C(=O)O)CC[C@]3(C)C(=CC[C@@H]4[C@@]5(C)C/C(=C/c6cccnc6)[C@H](O)C(C)(C)[C@@H]5CC[C@]43C)[C@@H]2C1`, the GI50 in the assay with HCT-15 colon is 3.85 µM; with OVCAR-5 ovarian it was 11.2 µM; with PC-3 prostate it was 2.66 µM; in the assay with U251 CNS, 5.59 µM; in the assay on SW-620 colon, 5.34 µM; in the assay on SF-268 CNS it was 8.68 µM. The GI50 was 8.78 µM in the assay with HT29 colon, 9.71 µM in the assay on COLO 205 colon, 21.7 µM in the assay with TK-10 renal and 13.2 µM in the assay with SR leukemia. Besides, the TGI is 25.6 µM in the assay with HCT-15 colon; 44 µM with OVCAR-5 ovarian; 72.4 µM with PC-3 prostate; 32.7 µM in the assay on U251 CNS; more than 100 µM with SW-620 colon; more than 100 µM in the assay with SF-268 CNS. The TGI was 42.1 µM in the assay with HT29 colon, 29.6 µM with COLO 205 colon, more than 100 µM in the assay on TK-10 renal and more than 100 µM with SR leukemia.
`FC(F)(F)c1ccc(-c2cnc(-c3nn[nH]n3)nc2NC2CCCCCC2)cc1`: the GI50 with HCT-15 colon, with OVCAR-5 ovarian, in the assay on PC-3 prostate, with U251 CNS, with SW-620 colon and in the assay with SF-268 CNS was more than 10 µM throughout. Besides, the GI50 with HT29 colon, in the assay on COLO 205 colon, in the assay on TK-10 renal and with SR leukemia was more than 10 µM throughout. Besides, the TGI in the assay on HCT-15 colon, in the assay with OVCAR-5 ovarian, in the assay on PC-3 prostate, in the assay with U251 CNS, with SW-620 colon and in the assay with SF-268 CNS was more than 10 µM in each case. In addition, the TGI with HT29 colon, in the assay on COLO 205 colon, in the assay with TK-10 renal and in the assay on SR leukemia was more than 10 µM throughout.
`c1c[nH]c(CN2CCN(Cc3ncc[nH]3)CC2)n1`: the TGI with HCT-15 colon, in the assay with OVCAR-5 ovarian, in the assay with PC-3 prostate, in the assay with U251 CNS, in the assay with SW-620 colon and in the assay with SF-268 CNS was more than 100 µM each time. Moreover, the TGI with HT29 colon, in the assay on COLO 205 colon, in the assay on TK-10 renal and in the assay with SR leukemia was more than 100 µM in each case.
With `C=C(C)[C@@H]1CC[C@]2(C(=O)OC)CC[C@]3(C)[C@H](CC[C@@H]4[C@@]5(C)CC/C(=N\OCCC(=NCCC#N)NOCCC#N)C(C)(C)[C@@H]5CC[C@]43C)[C@@H]12`, the GI50 with HCT-15 colon is 5.77 µM; in the assay on OVCAR-5 ovarian, 16.7 µM; in the assay with PC-3 prostate, 2.26 µM; in the assay on U251 CNS, 4.3 µM; in the assay with SW-620 colon, 4.45 µM; in the assay with SF-268 CNS, 11.4 µM. In addition, the GI50 was 6.7 µM in the assay with HT29 colon, 9.02 µM in the assay on COLO 205 colon, 13.8 µM in the assay with TK-10 renal and 2.87 µM in the assay with SR leukemia. Further, the TGI is more than 50 µM with HCT-15 colon; more than 50 µM in the assay with OVCAR-5 ovarian; more than 50 µM in the assay with PC-3 prostate; 12.4 µM with U251 CNS; more than 50 µM in the assay with SW-620 colon; more than 50 µM in the assay with SF-268 CNS. For the same compound, the TGI is 26.2 µM with HT29 colon, more than 50 µM in the assay on COLO 205 colon, more than 50 µM in the assay with TK-10 renal and 16.5 µM in the assay on SR leukemia.
`O=C(/C=C/c1c[nH]c2ccccc12)c1ccccc1O`: the TGI in the assay on HCT-15 colon came out at 21.7 µM; in the assay with OVCAR-5 ovarian, 28.8 µM; in the assay on PC-3 prostate it was 18.7 µM; in the assay on U251 CNS, 40.4 µM; with SW-620 colon it was 59.7 µM; with SF-268 CNS, 40 µM. Besides, the results for the TGI in the assay with HT29 colon and in the assay with TK-10 renal were 33.9 µM and 32.8 µM, respectively.
As to `CC(=O)O[C@@H]1[C@H]2O[C@H]2[C@H]2O[C@@]2(COC(=O)c2ccccc2)[C@H]1OC(C)=O`, the TGI with HCT-15 colon, with OVCAR-5 ovarian, in the assay on PC-3 prostate, in the assay with U251 CNS, with SW-620 colon and with SF-268 CNS was more than 100 µM throughout. In addition, the TGI with HT29 colon, with COLO 205 colon and with TK-10 renal was more than 100 µM throughout.
For `N=C(N)c1ccc(-c2ccc(-c3cccs3)s2)cc1F`, the GI50 with HCT-15 colon was 0.629 µM; in the assay with OVCAR-5 ovarian it was 1.02 µM; in the assay with PC-3 prostate it was 1.48 µM; in the assay on U251 CNS, 1.33 µM; with SW-620 colon, 0.506 µM; in the assay with SF-268 CNS, 1.65 µM. Moreover, the GI50 was 0.202 µM in the assay on COLO 205 colon, 1.61 µM with TK-10 renal and 0.341 µM with SR leukemia. The TGI in the assay with HCT-15 colon worked out at 2.09 µM; in the assay on OVCAR-5 ovarian, 2.36 µM; with PC-3 prostate it was 3.03 µM; in the assay on U251 CNS, 2.8 µM; in the assay on SW-620 colon, 1.94 µM; in the assay with SF-268 CNS it was 3.37 µM. Moreover, the figures for the TGI in the assay with COLO 205 colon, in the assay with TK-10 renal and in the assay with SR leukemia were 0.39 µM, 3.03 µM and 1.07 µM, respectively.
In the case of `Fc1cnccc1-c1nc2ccc3[nH]ncc3c2c2c1CCCC2`, the GI50 in the assay on HCT-15 colon is 0.844 µM; in the assay with OVCAR-5 ovarian it was 3.16 µM; in the assay on PC-3 prostate, 2.13 µM; with U251 CNS it was 1.96 µM; in the assay on SF-268 CNS, 1.99 µM; in the assay with HT29 colon it was 2.49 µM. The GI50 in the assay on TK-10 renal was 0.605 µM; in the assay on SR leukemia it was 0.519 µM. The TGI is more than 100 µM in the assay on HCT-15 colon; more than 100 µM with OVCAR-5 ovarian; more than 100 µM in the assay with PC-3 prostate; more than 100 µM with U251 CNS; 9.82 µM with SF-268 CNS; more than 100 µM in the assay with HT29 colon. In addition, the TGI in the assay with TK-10 renal is more than 100 µM; in the assay on SR leukemia, 5.08 µM.
For the compound `O=c1c2cc(F)ccc2sc2c(NCCCNCCO)nc3ccc(F)cc3c12`, the GI50 in the assay with HCT-15 colon was 1.49 µM; with OVCAR-5 ovarian, 1.62 µM; with PC-3 prostate it was 1.67 µM; in the assay on SW-620 colon it was 1.73 µM; in the assay on SF-268 CNS, 1.57 µM; in the assay with HT29 colon it was 1.82 µM. In addition, the GI50 was 1.9 µM in the assay on TK-10 renal and 3.41 µM in the assay on SR leukemia. In addition, the TGI in the assay with HCT-15 colon came to 2.91 µM; in the assay with OVCAR-5 ovarian, 3.04 µM; with PC-3 prostate, 3.3 µM; in the assay with SW-620 colon, 3.48 µM; in the assay with SF-268 CNS, 3.22 µM; in the assay with HT29 colon, 3.74 µM. The TGI with TK-10 renal was 3.7 µM; with SR leukemia, more than 100 µM.
